{
  "source": "paper PMC9785678",
  "about": "“Candidalysin Is the Hemolytic Factor of Candida albicans” (Toxins, 2022)",
  "key": {"red blood cells (RBCs)": {"system": "red blood cells (RBCs)", "test": "Hemolysis assay with synthetic peptides on purified RBCs", "assay_type": "cell-based, human", "settings": "37 °C; for hemolysis by the P7 derivative alone: 2 µM", "procedure": "RBCs were purified from whole blood of healthy volunteers. Blood was collected in tubes containing EDTA-K3 as an anticoagulant (approximately 9 mL/tube). To separate RBCs from white blood cells (WBCs) and plasma, three washes were performed by centrifugation (2000× g for 10 min) and subsequent re-suspension to reach 9 mL. First, the RBCs were resuspended in Dulbecco′s Phosphate Buffered Saline (DPBS) + 2% heat inactivated fetal bovine serum, then in pure DPBS, and eventually in RPMI (for assays with live candida) or again DPBS (for assays with peptides). After each centrifugation step, care was taken to remove as many WBCs as possible from the central buffy layer. A hemocytometer (Auto Hematology Analyzer BC-5300 Vet (Mindray, Shenzhen, China)) was used to verify that the WBC count was negligible ([…]) and to determine the RBC concentration. This was then adjusted to 5 × 10^8 cells/mL, in the respective media or buffer.\nPeptides were purchased from two different suppliers, namely Proteogenix (Strasbourg, France) and Peptide Protein Research Ltd. (Southampton, UK). Stock solutions were prepared in pure water at a concentration of 1.4 mM, then aliquoted and stored at −20 °C. […] Working solutions were then prepared in the relative buffer at the final concentration indicated for each assay.\nTo assess the hemolytic potential of C. albicans strains, RBCs and fungal cells were mixed in a 1:1 ratio (5 × 10^7 each, in a final volume of 600 µL) in a 2 mL plastic test tube (screw cap). Every condition was performed in duplicates (technical replicates) and with at least three different donors (biological replicates). Test tubes were then incubated horizontally at 50 rpms, 37 °C, for 24 h. To assess the hemolytic potential of peptides, 10^7 RBCs were incubated with the relevant peptide at the indicated final concentration in a total volume of 150 µL, for 1 h at 37 °C, in a 96-well PCR plate. After incubation, samples were centrifuged (2000× g for 3 min) and 100 µL of supernatant was transferred to a fresh 96-well plate to measure hemoglobin absorbance at 414 nm. Hemolysis was defined as the absorbance of the sample relative to the absorbance of the full lysis control sample (RBCs incubated with pure water), following subtraction of the absorbance of the vehicle control (RBCs incubated with media or buffer only)."}, "epithelial cells": {"system": "epithelial cells", "settings": "cited from earlier work", "from_the_text": "Candidalysin is generated from the longer polyprotein Ece1, which is processed by the Golgi-located Kex2 protease into eight peptides with C-terminal lysine–arginine (KR) residues. It was subsequently shown that a second processing event occurs by another Golgi-located protease, Kex1 [5, 11] which produces mature candidalysin by removing the C-terminal arginine from P3 [5, 11]. Peptides deriving from a Kex2-only processing are secreted, albeit at lower levels than mature candidalysin [5, 11]."}, "[1]": {"system": "candidalysin-induced hemolysis of RBCs", "test": "Protection of RBCs from candidalysin-induced lysis by purinergic receptor antagonist", "assay_type": "cell-based, human", "settings": "candidalysin 16 µM, increasing concentrations of PPADS, 1 h, 37 °C", "procedure": "Figure 5 The purinergic receptor antagonist pyridoxal-phosphate-6-azophenyl-2′,4′-disulfonic acid (PPADS) protects from candidalysin-induced hemolysis via a purinergic receptor-independent mechanism. (a) Purified RBCs were incubated with candidalysin (16 µM) and increasing concentrations of PPADS, for 1 h at 37 °C. Hemolysis was quantified by measuring the absorbance of sample’s supernatant at 414 nm, and plotted relative to the full lysis control sample (RBCs incubated with pure water and the same amount of PPADS), following subtraction of the relative vehicle control (containing the same amount of PPADS). […] Permeabilization was measured as kinetic changes in conductance of tethered lipid membranes. […]\nTo assess the hemolytic potential of C. albicans strains, RBCs and fungal cells were mixed in a 1:1 ratio (5 × 10^7 each, in a final volume of 600 µL) in a 2 mL plastic test tube (screw cap). […] After incubation, samples were centrifuged (2000× g for 3 min) and 100 µL of supernatant was transferred to a fresh 96-well plate to measure hemoglobin absorbance at 414 nm. Hemolysis was defined as the absorbance of the sample relative to the absorbance of the full lysis control sample (RBCs incubated with pure water), following subtraction of the absorbance of the vehicle control (RBCs incubated with media or buffer only)."}, "[2]": {"test": "Membrane permeabilization by candidalysin, tethered bilayer lipid membranes (conductance)", "settings": "membranes without receptors, candidalysin 5, 10, 20 µM, 37 °C", "procedure": "Figure 5 The purinergic receptor antagonist pyridoxal-phosphate-6-azophenyl-2′,4′-disulfonic acid (PPADS) protects from candidalysin-induced hemolysis via a purinergic receptor-independent mechanism. (a) Purified RBCs were incubated with candidalysin (16 µM) and increasing concentrations of PPADS, for 1 h at 37 °C. Hemolysis was quantified by measuring the absorbance of sample’s supernatant at 414 nm, and plotted relative to the full lysis control sample (RBCs incubated with pure water and the same amount of PPADS), following subtraction of the relative vehicle control (containing the same amount of PPADS). Each data point on the graph represents a different donor (average of 2 technical replicates). […] Permeabilization was measured as kinetic changes in conductance of tethered lipid membranes.\nTethered bilayer lipid membranes with 10% tethering lipids and 90% spacer lipids (T10 slides) were formed using the solvent exchange technique according to the manufacturer’s instructions (SDx Tethered Membranes Pty Ltd., Sydney, Australia). […] After rinsing 3× with 100 µL buffer, the conductance and capacitance of the membranes were measured for 20 min before injection of different concentrations of PPADS to the final concentrations in the individual channels as shown. […] Signals were measured using the tethaPod (SDx Tethered Membranes Pty Ltd., Sydney, Australia)."}},
  "data": [
    {"compound": "candidalysin", "values": [
      {"measurement": "reduction of hemolytic potential in the presence of EDTA", "setting": "red blood cells (RBCs); 100 mM EDTA, peptide 9 µM (Proteogenix), 1 h", "value": 4.2, "unit": "fold"},
      {"measurement": "hemolytic activity compared with P3", "setting": "red blood cells (RBCs); all tested concentrations (1–8 µM), time course", "value": "clearly less hemolytic than P3"},
      {"measurement": "effect of pH on lysis efficiency", "setting": "red blood cells (RBCs); pH 5 to 8, buffered HBSS, peptide 9 µM, 1 h", "value": "Only a minimal difference"},
      {"measurement": "effect of adding excess Mg2+ ions (MgCl2) to cells pre-treated with EDTA on cytotoxicity", "setting": "red blood cells (RBCs); peptide 9 µM, EDTA then MgCl2 up to 100 mM, 1 h", "value": "restored the cytotoxicity"},
      {"measurement": "peptide concentration at and above which almost full RBC lysis was observed at the earliest time point", "setting": "red blood cells (RBCs); time course, 5 min incubation, range 1–8 µM, mean of 4 donors", "value": "≥ 4", "unit": "µM"},
      {"measurement": "cytolytic activity against epithelial cells", "setting": "epithelial cells", "value": "have cytolytic activity"}
    ]},
    {"compound": "Cc1nc(N=Nc2ccc(S(=O)(=O)O)cc2S(=O)(=O)O)c(COP(=O)(O)O)c(C=O)c1O", "note": "[PPADS, pyridoxal-phosphate-6-azophenyl-2′,4′-disulfonic acid]", "values": [
      {"measurement": "effect on candidalysin-induced hemolysis", "setting": "[1]", "value": "reduced"},
      {"measurement": "effect on permeabilization of artificial membranes by candidalysin", "setting": "[2]", "value": "able to inhibit permeabilization"}
    ]},
    {"compound": "CC[C@H](C)[C@H](NC(=O)[C@H](CC(C)C)NC(=O)[C@H](CCC(N)=O)NC(=O)[C@@H]1CCCN1C(=O)[C@H](CC(C)C)NC(=O)[C@H](CCCNC(=N)N)NC(=O)[C@H](CCC(N)=O)NC(=O)[C@H](CC(C)C)NC(=O)[C@H](CC(C)C)NC(=O)[C@H](CCC(=O)O)NC(=O)[C@H](CC(=O)O)NC(=O)[C@H](CC(C)C)NC(=O)[C@H](Cc1ccccc1)NC(=O)[C@H](CC(=O)O)NC(=O)[C@H](CCC(=O)O)NC(=O)[C@H](CC(C)C)NC(=O)CNC(=O)[C@@H](N)CC(=O)O)C(=O)N[C@H](C(=O)N[C@@H](CCCNC(=N)N)C(=O)N[C@@H](CO)C(=O)N[C@@H](C)C(=O)N[C@@H](CCC(=O)O)C(=O)N[C@@H](CO)C(=O)N[C@@H](C)C(=O)N[C@@H](CC(C)C)C(=O)N[C@@H](CCCCN)C(=O)N[C@@H](CC(=O)O)C(=O)N[C@@H](CO)C(=O)N[C@@H](CCC(N)=O)C(=O)N1CCC[C@H]1C(=O)N[C@H](C(=O)N[C@@H](CCCCN)C(=O)O)C(C)C)[C@@H](C)O", "note": "[P7K]", "values": [
      {"measurement": "hemolysis by the P7 derivative alone", "setting": "red blood cells (RBCs); 1 h", "value": "no effect"}
    ]},
    {"compound": "CC[C@H](C)[C@H](NC(=O)[C@H](CC(C)C)NC(=O)[C@H](CCC(N)=O)NC(=O)[C@@H]1CCCN1C(=O)[C@H](CC(C)C)NC(=O)[C@H](CCCNC(=N)N)NC(=O)[C@H](CCC(N)=O)NC(=O)[C@H](CC(C)C)NC(=O)[C@H](CC(C)C)NC(=O)[C@H](CCC(=O)O)NC(=O)[C@H](CC(=O)O)NC(=O)[C@H](CC(C)C)NC(=O)[C@H](Cc1ccccc1)NC(=O)[C@H](CC(=O)O)NC(=O)[C@H](CCC(=O)O)NC(=O)[C@H](CC(C)C)NC(=O)CNC(=O)[C@@H](N)CC(=O)O)C(=O)N[C@H](C(=O)O)[C@@H](C)O", "note": "[P7a]", "values": [
      {"measurement": "hemolysis by the P7 derivative alone", "setting": "red blood cells (RBCs); 1 h", "value": "low-level cytolytic activity"}
    ]}
  ]
}
